Experiments:
rats = test: Penile erection test using rats; assay type: in vivo, rat; details: oral single dose 10 mg/kg in 0.5% methyl cellulose, observed for 2 hours
[1] = Acute oral toxicity test in rats; details: SD, rat, in vivo, 1 g/kg; rats, oral single dose; read-out: lethal dose (LD50) of oral administration
[2] = biological target: T1, Phosphodiesterase-5 enzyme (PDE 5) (Homo sapiens, UniProt O76074); test: Test for phosphodiesterase-5 (PDE 5) activity; assay type: biochemical; details: PDE 5 fraction from human corpus cavernosal tissues
T1 construct: separated by HPLC (Mono Q anion exchange column) with concentration gradient of 0-500 mM NaCl to elute PDE isozymes; from tissue; host or cells: human corpus cavernosal tissue

Row | SMILES | PEI (penile erection index) (rats) | genital grooming (number of genital groomings) (rats) | LD50 [1] [mg/kg] | IC50 [2] [µM]
1 | CCCc1nn(C)c2c(=O)[nH]c(-c3cc(S(=O)(=O)NC(C)C)ccc3OCC)nc12 [Example 1, 5-[2-ethoxy-5-(isopropylamidosulfonyl)phenyl]-1-methyl-3-propyl-1,6-dihydro-7H-pyrazolo(4,3-d)pyrimidin-7-one] | 366.7 ± 38.5 | 3.0 ± 1.0 | > 1000 | 0.00863
2 | CCOc1ccc(S(=O)(=O)NC(C)C)cc1-c1nc2c(CC(C)C)nn(C)c2c(=O)[nH]1 [Example 4] | 133.3 ± 57.7 | 2.3 ± 1.2 | – | –
3 | CCCc1nn(CC)c2c(=O)[nH]c(-c3cc(S(=O)(=O)NC(C)C)ccc3OCC)nc12 [Example 5, 5-[2-ethoxy-5-(isopropylamidosulfonyl)phenyl]-1-ethyl-3-propyl-1,6-dihydro-7H-pyrazolo(4,3-d)pyrimidin-7-one] | 266.7 ± 57.7 | 3.3 ± 1.2 | > 1000 | 0.0196
4 | CCCNS(=O)(=O)c1ccc(OCC)c(-c2nc3c(CCC)nn(C)c3c(=O)[nH]2)c1 [Example 7, 5-[2-ethoxy-5-(propylamidosulfonyl)phenyl]-1-methyl-3-propyl-1,6-dihydro-7H-pyrazolo(4,3-d)pyrimidin-7-one] | 200.0 ± 0.0 | 6.7 ± 3.8 | > 1000 | 0.0207
5 | CCCNS(=O)(=O)c1ccc(OCC)c(-c2nc3c(CCC)nn(CC)c3c(=O)[nH]2)c1 [Example 8, 5-[2-ethoxy-5-(propylamidosulfonyl)phenyl]-1-ethyl-3-propyl-1,6-dihydro-7H-pyrazolo(4,3-d)pyrimidin-7-one] | 200.0 ± 100.0 | 3.0 ± 1.0 | > 1000 | 0.0253
6 | CCCc1nn(C)c2c(=O)[nH]c(-c3cc(S(=O)(=O)NC(C)CC)ccc3OCC)nc12 (centres unmarked) [Example 10, 5-[2-ethoxy-5-(2-butylamidosulfonyl)phenyl]-1-methyl-3-propyl-1,6-dihydro-7H-pyrazolo(4,3-d)pyrimidin-7-one] | 466.7 ± 305.5 | 4.0 ± 1.7 | > 1000 | 0.00378
7 | CCCc1nn(C)c2c(=O)[nH]c(-c3cc(S(=O)(=O)NC(CC)CC)ccc3OCC)nc12 [Example 11] | 100 ± 0.0 | 2.7 ± 2.1 | – | –
8 | CCCc1nn(C)c2c(=O)[nH]c(-c3cc(S(=O)(=O)NC(C)(C)C)ccc3OCC)nc12 [Example 12] | 22.2 ± 38.5 | 0.3 ± 0.6 | – | –
9 | CCCc1nn(C)c2c(=O)[nH]c(-c3cc(S(=O)(=O)NC4CC4)ccc3OCC)nc12 [Example 13, 5-[2-ethoxy-5-(cyclopropylamidosulfonyl)phenyl]-1-methyl-3-propyl-1,6-dihydro-7H-pyrazolo(4,3-d)pyrimidin-7-one] | 300.0 ± 100.0 | 4.3 ± 1.2 | > 1000 | 0.0217
10 | CCCc1nn(CC)c2c(=O)[nH]c(-c3cc(S(=O)(=O)NC4CC4)ccc3OCC)nc12 [Example 14, 5-[2-ethoxy-5-(cyclopropylamidosulfonyl)phenyl]-1-ethyl-3-propyl-1,6-dihydro-7H-pyrazolo(4,3-d)pyrimidin-7-one] | 233.3 ± 57.7 | 3.0 ± 1.0 | > 1000 | 0.0795
11 | CCOc1ccc(S(=O)(=O)NC2CC2)cc1-c1nc2c(CC(C)C)nn(C)c2c(=O)[nH]1 [Example 15] | 111.1 ± 101.8 | 0.7 ± 0.6 | – | –
12 | CCCOc1ccc(S(=O)(=O)NC2CC2)cc1-c1nc2c(CCC)nn(C)c2c(=O)[nH]1 [Example 16] | 100 ± 0 | 1.7 ± 0.6 | – | –
13 | CCCc1nn(C)c2c(=O)[nH]c(-c3cc(S(=O)(=O)NC4CCC4)ccc3OCC)nc12 [Example 17] | 66.7 ± 66.7 | 1.0 ± 1.0 | – | –
14 | CCCc1nn(C)c2c(=O)[nH]c(-c3cc(S(=O)(=O)NC4CCCC4)ccc3OCC)nc12 [Example 18] | 44.4 ± 38.5 | 1.3 ± 0.6 | – | –
15 | CCCc1nn(C)c2c(=O)[nH]c(-c3cc(S(=O)(=O)NC4CCCCC4)ccc3OCC)nc12 [Example 19, 5-[2-ethoxy-5-(cyclohexylamidosulfonyl)phenyl]-1-methyl-3-propyl-1,6-dihydro-7H-pyrazolo(4,3-d)pyrimidin-7-one] | 233.3 ± 57.7 | 5.0 ± 0.0 | > 1000 | 0.00498
16 | CCOc1ccc(S(=O)(=O)NC2CCCCC2)cc1-c1nc2c(CC(C)C)nn(C)c2c(=O)[nH]1 [Example 20] | 266.7 ± 57.7 | 2.3 ± 0.6 | – | –
17 | CCCc1nn(C)c2c(=O)[nH]c(-c3cc(S(=O)(=O)NCC4CCCO4)ccc3OCC)nc12 (centres unmarked) [Example 21] | 44.4 ± 38.5 | 2.3 ± 1.5 | – | –

Row | SMILES | PEI (penile erection index) (rats) | genital grooming (number of genital groomings) (rats) | LD50 [1] [mg/kg] | IC50 [2] [µM]
18 | CCCOc1ccc(S(=O)(=O)NCc2ccccc2)cc1-c1nc2c(CCC)nn(C)c2c(=O)[nH]1 [Example 23, 5-[2-propyloxy-5-(benzylamidosulfonyl)phenyl]-1-methyl-3-propyl-1,6-dihydro-7H-pyrazolo(4,3-d)pyrimidin-7-one] | 266.7 ± 57.7 | 3.0 ± 1.0 | > 1000 | 0.0127
19 | CCCc1nn(CC)c2c(=O)[nH]c(-c3cc(S(=O)(=O)NCc4ccccc4)ccc3OCC)nc12 [Example 24, 5-[2-ethoxy-5-(benzylamidosulfonyl)phenyl]-1-ethyl-3-propyl-1,6-dihydro-7H-pyrazolo(4,3-d)pyrimidin-7-one] | 233.3 ± 230.9 | 2.7 ± 2.9 | > 1000 | 0.086
20 | CCCc1nn(C)c2c(=O)[nH]c(-c3cc(S(=O)(=O)Nc4ccccc4)ccc3OCC)nc12 [Example 25] | 44.4 ± 38.5 | 2.0 ± 0.0 | – | –
21 | CCCc1nn(C)c2c(=O)[nH]c(-c3cc(S(=O)(=O)Nc4ccc(F)cc4)ccc3OCC)nc12 [Example 26, 5-[2-ethoxy-5-(4-fluorophenylamidosulfonyl)phenyl]-1-methyl-3-propyl-1,6-dihydro-7H-pyrazolo(4,3-d)pyrimidin-7-one] | 133.3 ± 133.3 | 4.0 ± 1.7 | > 1000 | 0.0746
22 | CCCc1nn(C)c2c(=O)[nH]c(-c3cc(S(=O)(=O)Nc4ccc(C)cc4)ccc3OCC)nc12 [Example 27] | 66.7 ± 66.7 | 2.7 ± 1.2 | – | –
23 | CCCc1nn(C)c2c(=O)[nH]c(-c3cc(S(=O)(=O)Nc4ccc(C(C)(C)C)cc4)ccc3OCC)nc12 [Example 28, 5-[2-ethoxy-5-(4-t-butylphenylamidosulfonyl)phenyl]-1-methyl-3-propyl-1,6-dihydro-7H-pyrazolo(4,3-d)pyrimidin-7-one] | 300.0 ± 100.0 | 3.0 ± 1.0 | > 1000 | 0.0466
24 | CCCc1nn(CC)c2c(=O)[nH]c(-c3cc(S(=O)(=O)Nc4ccc(C(C)(C)C)cc4)ccc3OCC)nc12 [Example 29, 5-[2-ethoxy-5-(4-t-butylphenylamidosulfonyl)phenyl]-1-ethyl-3-propyl-1,6-dihydro-7H-pyrazolo(4,3-d)pyrimidin-7-one] | 233.3 ± 152.8 | 3.0 ± 2.0 | > 1000 | 0.0498
25 | CCOc1ccc(S(=O)(=O)Nc2ccc(C(C)(C)C)cc2)cc1-c1nc2c(CC(C)C)nn(C)c2c(=O)[nH]1 [Example 30] | 133.3 ± 57.7 | 2.3 ± 0.6 | – | –
26 | CCCc1nn(C)c2c(=O)[nH]c(-c3cc(S(=O)(=O)Nc4cc(C)cc(C)c4)ccc3OCC)nc12 [Example 32] | 66.7 ± 66.7 | 1.3 ± 1.5 | – | –
27 | CCCc1nn(C)c2c(=O)[nH]c(-c3cc(S(=O)(=O)Nc4ccccn4)ccc3OCC)nc12 [Example 42] | 33.3 ± 57.7 | 1.3 ± 1.5 | – | –
28 | CCCc1nn(C)c2c(=O)[nH]c(-c3cc(S(=O)(=O)NCc4ccncc4)ccc3OCC)nc12 [Example 43] | 11.1 ± 19.3 | 0.7 ± 0.6 | – | –
29 | CCCc1nn(CC)c2c(=O)[nH]c(-c3cc(S(=O)(=O)NCc4ccncc4)ccc3OCC)nc12 [Example 45] | 22.2 ± 38.5 | 0.7 ± 1.2 | – | –
30 | CCCc1nn(C)c2c(=O)[nH]c(-c3cc(S(=O)(=O)NCc4ccccn4)ccc3OCC)nc12 [Example 50] | 44.3 ± 38.5 | 1.0 ± 0.0 | – | –
31 | CCCc1nn(C)c2c(=O)[nH]c(-c3cc(S(=O)(=O)NCC4CCCN4C)ccc3OCC)nc12 (centres unmarked) [Example 55] | 350.0 ± 173.2 | 3.8 ± 1.5 | – | 0.103
32 | CCCc1nn(CC)c2c(=O)[nH]c(-c3cc(S(=O)(=O)NCC4CCN(C)C4)ccc3OCC)nc12 (centres unmarked) [Example 61] | 25.0 ± 28.9 | 0.8 ± 0.5 | – | 0.0939
33 | CCCc1nn(C)c2c(=O)[nH]c(-c3cc(S(=O)(=O)NCCC4CCCN4C)ccc3OCC)nc12 (centres unmarked) [Example 67] | 75.0 ± 61.2 | 1.8 ± 1.5 | – | 0.063

Source: US6583147B1, “Pyrazolopyrimidinone derivatives for the treatment of impotence” (Dong A Pharm Co., Ltd., priority 1998, dated 2003)
